SMILES strings stand for the structures. Active and inactive are the calls of the source. The calls are words filed in the database; no cut-off is given here.

The test system of assay [1] is Legionella pneumophila 130b. Briefly: Inhibition of recombinant Legionella pneumophila 130b His6-tagged NTPDase (41 to 393 residues) expressed in Escherichia coli BL21(DE3) cells using ADP as substrate at 30 uM incubated for 10 mins by capillary electrophoresis method relative to control.
A short description of assay [2]: Inhibition of recombinant Legionella pneumophila 130b His6-tagged NTPDase (41 to 393 residues) expressed in Escherichia coli BL21(DE3) cells using ADP as substrate incubated for 10 mins by capillary electrophoresis method.
Assay [3] can be described thus: Inhibition of recombinant Legionella pneumophila 130b His6-tagged NTPDase (41 to 393 residues) expressed in Escherichia coli BL21(DE3) cells using ADP as substrate incubated for 10 mins by Cheng-Prusoff equation analysis.
Assay [4] relates to Legionella pneumophila 130b. The experiment in a line: Competitive inhibition of recombinant Legionella pneumophila 130b His6-tagged NTPDase (41 to 393 residues) expressed in Escherichia coli BL21(DE3) cells at 3 to 6 uM incubated for 10 mins in presence of varying levels of ADP by Lineweaver-Burk plot analysis.
Assay [5] addresses T1, Ectonucleoside triphosphate diphosphohydrolase 1 (Homo sapiens, UniProt P49961).
T1 sequence (P49961 whole entry): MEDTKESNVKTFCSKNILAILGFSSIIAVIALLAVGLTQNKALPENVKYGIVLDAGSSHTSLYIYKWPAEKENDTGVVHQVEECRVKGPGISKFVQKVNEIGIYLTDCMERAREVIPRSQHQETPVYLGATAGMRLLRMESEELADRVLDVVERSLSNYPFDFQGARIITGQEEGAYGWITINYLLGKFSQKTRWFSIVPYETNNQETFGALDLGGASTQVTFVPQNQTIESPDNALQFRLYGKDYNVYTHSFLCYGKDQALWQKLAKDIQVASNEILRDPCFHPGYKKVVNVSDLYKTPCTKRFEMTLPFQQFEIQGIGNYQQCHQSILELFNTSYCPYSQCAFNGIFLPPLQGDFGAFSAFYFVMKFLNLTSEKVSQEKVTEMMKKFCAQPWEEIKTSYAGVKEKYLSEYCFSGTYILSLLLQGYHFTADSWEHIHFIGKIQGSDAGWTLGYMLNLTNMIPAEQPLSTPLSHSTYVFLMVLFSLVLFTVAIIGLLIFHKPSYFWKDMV
Briefly: Inhibition of recombinant human NTPDase1 expressed in CHO cells using ADP as substrate incubated for 10 mins by capillary electrophoresis method.

Assay [6] has as its target T2, Ectonucleoside triphosphate diphosphohydrolase 2 (Homo sapiens, UniProt Q9Y5L3).
T2 sequence (Q9Y5L3 whole entry): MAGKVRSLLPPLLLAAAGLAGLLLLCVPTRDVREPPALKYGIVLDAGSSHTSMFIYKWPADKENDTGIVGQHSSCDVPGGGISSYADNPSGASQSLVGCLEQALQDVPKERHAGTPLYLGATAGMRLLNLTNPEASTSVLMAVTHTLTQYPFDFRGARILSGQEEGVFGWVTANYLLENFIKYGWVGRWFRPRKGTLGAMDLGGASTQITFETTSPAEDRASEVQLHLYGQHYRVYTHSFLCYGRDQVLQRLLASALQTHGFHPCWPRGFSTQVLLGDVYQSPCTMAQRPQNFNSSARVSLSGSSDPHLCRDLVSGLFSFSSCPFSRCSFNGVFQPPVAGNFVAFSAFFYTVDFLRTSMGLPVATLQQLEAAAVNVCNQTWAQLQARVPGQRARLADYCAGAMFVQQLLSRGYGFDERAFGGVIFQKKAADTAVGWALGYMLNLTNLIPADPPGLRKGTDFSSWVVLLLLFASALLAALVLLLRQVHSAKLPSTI
Briefly: Inhibition of recombinant human NTPDase2 expressed in CHO cells using ADP as substrate incubated for 10 mins by capillary electrophoresis method.

Assay [7] deals with T3, Ectonucleoside triphosphate diphosphohydrolase 3 (Homo sapiens) (UniProt O75355).
T3 sequence (whole entry): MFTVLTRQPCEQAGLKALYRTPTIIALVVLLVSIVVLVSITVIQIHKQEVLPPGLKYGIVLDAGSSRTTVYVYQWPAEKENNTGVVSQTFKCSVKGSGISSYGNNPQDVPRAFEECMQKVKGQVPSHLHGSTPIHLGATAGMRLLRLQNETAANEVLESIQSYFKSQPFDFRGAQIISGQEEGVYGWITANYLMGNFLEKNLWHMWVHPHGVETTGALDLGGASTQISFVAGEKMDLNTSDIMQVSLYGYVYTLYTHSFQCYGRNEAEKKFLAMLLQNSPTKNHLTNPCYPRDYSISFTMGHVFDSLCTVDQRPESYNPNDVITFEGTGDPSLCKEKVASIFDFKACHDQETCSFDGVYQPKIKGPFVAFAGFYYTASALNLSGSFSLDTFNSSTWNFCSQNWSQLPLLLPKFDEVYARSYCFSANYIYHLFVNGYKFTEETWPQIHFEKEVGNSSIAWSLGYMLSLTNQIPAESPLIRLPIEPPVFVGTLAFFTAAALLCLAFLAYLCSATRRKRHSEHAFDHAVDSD
Briefly: Inhibition of recombinant human NTPDase3 expressed in mouse NS0 cells using ADP as substrate at 30 uM incubated for 10 mins by capillary electrophoresis method relative to control.

Assay [8] deals with Legionella pneumophila 130b. The conditions noted are these: 3 uM.
The subject of assay [9] is Legionella pneumophila 130b. The settings on record: 6 uM.
The test system of assay [10] is Legionella pneumophila 130b. The settings on record: 3 uM. The source holds these as a separate data set.
In assay [11] the test system is Legionella pneumophila 130b. The settings on record: 6 uM. The source holds these as a separate data set.
The nature of assay [12]: Inhibition of Legionella pneumophila NTPDase.

A word on the inhibition: it is the drop in the measured response relative to a control, in per cent. Turning to `CCc1ccccc1Nc1cc(S(=O)(=O)O)c(N)c2c1C(=O)c1ccccc1C2=O`, the inhibition in assay [1] is 39%. As to `Nc1c(S(=O)(=O)O)cc(Nc2cccc([N+](=O)[O-])c2)c2c1C(=O)c1ccccc1C2=O`, the inhibition in [1] is 44%.

`Nc1c(S(=O)(=O)O)cc(Nc2cccc3cc(S(=O)(=O)O)ccc23)c2c1C(=O)c1ccccc1C2=O`: the inhibition in [1] is 30%. Still for that read-out and setting: for `Nc1c(S(=O)(=O)O)cc(Nc2cccc(Br)c2)c2c1C(=O)c1ccccc1C2=O` the value was 44%. What is called IC50 is the midpoint of a concentration-inhibition curve. One may read the Ki as the equilibrium dissociation constant of an inhibitor or competing ligand from its target. `Nc1c(S(=O)(=O)O)cc(Nc2ccc(Cl)cc2)c2c1C(=O)c1ccccc1C2=O`: in [1], the inhibition is 66%. In [2], the IC50 stood at 17.6 µM. The Ki in assay [3] came to 12.4 µM. For the molecule `Nc1c(S(=O)(=O)O)cc(Nc2ccc(Nc3nc(Cl)nc(Nc4ccccc4S(=O)(=O)O)n3)c(S(=O)(=O)O)c2)c2c1C(=O)c1ccccc1C2=O`, the inhibition in assay [1] was 45%. Same read-out and setting: then `Nc1c(S(=O)(=O)O)cc(Nc2ccc3ccccc3c2)c2c1C(=O)c1ccccc1C2=O`, with 51%. As to `Nc1c(S(=O)(=O)O)cc(Nc2ccc(Nc3nc(Cl)nc(Cl)n3)c(S(=O)(=O)O)c2)c2c1C(=O)c1ccccc1C2=O`, the inhibition in assay [1] was 8%. On the same count and under the same terms, then `Cc1ccccc1Nc1cc(S(=O)(=O)O)c(N)c2c1C(=O)c1ccccc1C2=O`, with 44%. Same read-out and setting: for `Nc1c(S(=O)(=O)O)cc(NC2CCCCC2)c2c1C(=O)c1ccccc1C2=O` the value was 22%; for `CCCNc1cc(S(=O)(=O)O)c(N)c2c1C(=O)c1ccccc1C2=O`, “inactive”. On the same count and under the same terms, for `Nc1c(S(=O)(=O)O)cc(Nc2ccccc2F)c2c1C(=O)c1ccccc1C2=O` the value was “inactive”. As a reminder, the Km is the substrate concentration at which the rate is half of its maximum. As usually defined, the Vmax is the top rate of the reaction or transport when substrate is in excess. As to `Nc1c(S(=O)(=O)O)cc(Nc2cc3ccccc3c3ccccc23)c2c1C(=O)c1ccccc1C2=O`, the inhibition came out at 90% in assay [1] and 18% in assay [7]. Also, the IC50 turned out to be 4.24 µM in assay [2], 20 µM in [5] and 3 µM in [6]. For the same molecule, in assay [3], the Ki amounted to 2.99 µM. Also, in [4], the inhibition result is “Active”. The values for the Km in assay [8] and in assay [9] were 623 µM and 710 µM, respectively. The results for the Vmax in assay [10] and in [11] were 327 µmol/min/mg and 272 µmol/min/mg, respectively.

In the case of `Cc1ccc2ccccc2c1Nc1cc(S(=O)(=O)O)c(N)c2c1C(=O)c1ccccc1C2=O`, the inhibition in [1] is 76%. In assay [2], the half-inhibitory concentration (IC50) amounted to 13.6 µM. Also, in assay [3], the Ki worked out at 9.58 µM.

As for `Nc1c(S(=O)(=O)O)cc(NCCc2ccccc2)c2c1C(=O)c1ccccc1C2=O`, the inhibition entry in assay [1] was “inactive”. As for `Cc1cccc(Nc2cc(S(=O)(=O)O)c(N)c3c2C(=O)c2ccccc2C3=O)c1`, the inhibition in [1] turned out to be 53%.

Take `COc1ccccc1Oc1ccc(Nc2cc(S(=O)(=O)O)c(N)c3c2C(=O)c2ccccc2C3=O)cc1`: in assay [1], the inhibition stood at 28%. For the molecule `CCN(CC)c1ncnc2c1ncn2[C@@H]1O[C@H](COP(=O)(O)OP(=O)(O)OC(Br)(Br)P(=O)(O)O)[C@@H](O)[C@H]1O`, the Ki in [12] was 500 µM. `Nc1c(S(=O)(=O)O)cc(Nc2ccccc2)c2c1C(=O)c1ccccc1C2=O`: the inhibition in assay [1] was determined as 31%. The same measure, in the same setting: then `Cc1cc(C)c(Nc2cc(S(=O)(=O)O)c(N)c3c2C(=O)c2ccccc2C3=O)c(C)c1`, with 44%. On the same count and under the same terms, then `Nc1c(S(=O)(=O)O)cc(Nc2cccc3c(S(=O)(=O)O)cccc23)c2c1C(=O)c1ccccc1C2=O`, with 26%; and `Nc1c(S(=O)(=O)O)cc(Nc2ccc3cc(C(=O)O)ccc3c2)c2c1C(=O)c1ccccc1C2=O`, with 32%. Still for that read-out and setting: then `CCOP(=O)(Cc1ccc(Nc2cc(S(=O)(=O)O)c(N)c3c2C(=O)c2ccccc2C3=O)cc1)OCC`, with “inactive”.

As to `Nc1c(S(=O)(=O)O)cc(Nc2cccc3ccccc23)c2c1C(=O)c1ccccc1C2=O`, the inhibition in [1] is 62%. The IC50 in assay [2] was 12.2 µM. In addition, the Ki in assay [3] came to 8.59 µM.
